How the values were obtained:
Histamine H3 receptor [1] = biological target: T1, Histamine H3 receptor (Homo sapiens, UniProt Q9Y5N1); experiment: Antagonist activity at human histamine H3 receptor; format: functional; conditions: read-out: pA2 (converted)
Histamine H3 receptor [2] = biological target: T1, Histamine H3 receptor; experiment: Binding affinity to human histamine H3 receptor
[3] = Ratio of log AUC in brain to plasma in mouse at 10 mg/kg, ip; format: ADME, organism-based; design: dose 10 mg/kg, route intraperitoneal; conditions: brain and plasma, read-out: BPR
[4] = biological target: Sodium-dependent dopamine transporter (Homo sapiens, UniProt Q01959); experiment: Binding affinity to DAT
[5] = biological target: Sodium-dependent noradrenaline transporter (Homo sapiens, UniProt P23975); experiment: Binding affinity to NET
[6] = biological target: Kappa-type opioid receptor (Homo sapiens, UniProt P41145); experiment: Binding affinity to kappa opioid receptor
Rattus norvegicus [7] = experiment: Increase in 5-hydroxytryptamine level in rat brain at 3 mg/kg, sc within 4 hrs relative to basal level; format: ADME, organism-based; design: dose 3 mg/kg, route subcutaneous; conditions: in vivo
Rattus norvegicus [8] = experiment: Increase in dopamine level in rat brain at 3 mg/kg, sc within 4 hrs relative to basal level; format: ADME, organism-based; design: dose 3 mg/kg, route subcutaneous; conditions: in vivo
[9] = Plasma concentration in mouse at 10 mg/kg, ip after 15 mins; format: ADME, organism-based; design: dose 10 mg/kg, route intraperitoneal
[10] = Drug level in mouse brain at 10 mg/kg, ip after 2 hrs; format: ADME, organism-based; design: dose 10 mg/kg, route intraperitoneal; conditions: read-out: Drug uptake
[11] = Mean residence time in mouse plasma at 10 mg/kg, ip; format: ADME, organism-based; design: dose 10 mg/kg, route intraperitoneal
[12] = Mean residence time in mouse brain at 10 mg/kg, ip; format: ADME, organism-based; design: dose 10 mg/kg, route intraperitoneal

T1 sequence (Q9Y5N1 whole entry): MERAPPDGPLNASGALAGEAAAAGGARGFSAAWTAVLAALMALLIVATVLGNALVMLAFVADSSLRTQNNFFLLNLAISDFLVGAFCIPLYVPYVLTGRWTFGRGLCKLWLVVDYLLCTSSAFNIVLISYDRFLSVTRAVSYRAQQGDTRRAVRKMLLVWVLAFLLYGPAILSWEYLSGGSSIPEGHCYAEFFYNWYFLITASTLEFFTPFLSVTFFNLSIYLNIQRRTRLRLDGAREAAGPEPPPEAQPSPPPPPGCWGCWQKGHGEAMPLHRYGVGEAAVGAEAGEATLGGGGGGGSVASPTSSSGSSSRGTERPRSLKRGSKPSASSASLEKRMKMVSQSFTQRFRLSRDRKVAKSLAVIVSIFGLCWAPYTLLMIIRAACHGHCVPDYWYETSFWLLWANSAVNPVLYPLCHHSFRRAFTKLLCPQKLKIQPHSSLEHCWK
Sequence of Sodium-dependent noradrenaline transporter (P23975 whole entry): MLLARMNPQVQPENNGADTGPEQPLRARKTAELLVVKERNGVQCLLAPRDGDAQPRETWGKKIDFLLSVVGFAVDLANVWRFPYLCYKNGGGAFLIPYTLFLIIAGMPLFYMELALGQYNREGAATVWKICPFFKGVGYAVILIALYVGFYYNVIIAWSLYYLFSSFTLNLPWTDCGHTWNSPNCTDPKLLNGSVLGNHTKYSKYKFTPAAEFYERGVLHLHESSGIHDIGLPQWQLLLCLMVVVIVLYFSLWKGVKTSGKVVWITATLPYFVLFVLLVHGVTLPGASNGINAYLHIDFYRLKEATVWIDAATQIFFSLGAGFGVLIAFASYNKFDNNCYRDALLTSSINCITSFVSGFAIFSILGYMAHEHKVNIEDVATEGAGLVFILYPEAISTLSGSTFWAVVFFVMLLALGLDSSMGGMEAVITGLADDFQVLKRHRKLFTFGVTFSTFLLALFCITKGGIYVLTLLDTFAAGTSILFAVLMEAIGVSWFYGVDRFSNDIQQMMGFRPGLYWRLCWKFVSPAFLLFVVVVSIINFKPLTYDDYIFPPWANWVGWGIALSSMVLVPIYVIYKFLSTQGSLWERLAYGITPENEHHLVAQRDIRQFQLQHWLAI
Sequence of Sodium-dependent dopamine transporter (Q01959 whole entry): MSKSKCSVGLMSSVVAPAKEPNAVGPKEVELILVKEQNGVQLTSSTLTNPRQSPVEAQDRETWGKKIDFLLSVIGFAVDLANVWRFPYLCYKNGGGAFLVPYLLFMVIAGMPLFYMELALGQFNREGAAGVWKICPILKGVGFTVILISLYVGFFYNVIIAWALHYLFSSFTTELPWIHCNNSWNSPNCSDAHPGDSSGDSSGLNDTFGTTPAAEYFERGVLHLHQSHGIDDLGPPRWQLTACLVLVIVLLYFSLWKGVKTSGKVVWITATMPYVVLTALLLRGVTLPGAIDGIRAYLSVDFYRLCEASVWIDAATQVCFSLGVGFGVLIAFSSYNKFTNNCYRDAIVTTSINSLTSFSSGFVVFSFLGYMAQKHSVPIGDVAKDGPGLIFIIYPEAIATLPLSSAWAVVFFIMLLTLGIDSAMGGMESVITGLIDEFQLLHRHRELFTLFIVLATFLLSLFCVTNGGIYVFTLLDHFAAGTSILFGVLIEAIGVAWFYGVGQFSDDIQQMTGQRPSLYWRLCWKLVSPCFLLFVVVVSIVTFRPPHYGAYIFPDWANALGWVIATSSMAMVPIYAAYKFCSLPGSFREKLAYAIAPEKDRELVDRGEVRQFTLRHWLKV
Sequence of Kappa-type opioid receptor (P41145 whole entry): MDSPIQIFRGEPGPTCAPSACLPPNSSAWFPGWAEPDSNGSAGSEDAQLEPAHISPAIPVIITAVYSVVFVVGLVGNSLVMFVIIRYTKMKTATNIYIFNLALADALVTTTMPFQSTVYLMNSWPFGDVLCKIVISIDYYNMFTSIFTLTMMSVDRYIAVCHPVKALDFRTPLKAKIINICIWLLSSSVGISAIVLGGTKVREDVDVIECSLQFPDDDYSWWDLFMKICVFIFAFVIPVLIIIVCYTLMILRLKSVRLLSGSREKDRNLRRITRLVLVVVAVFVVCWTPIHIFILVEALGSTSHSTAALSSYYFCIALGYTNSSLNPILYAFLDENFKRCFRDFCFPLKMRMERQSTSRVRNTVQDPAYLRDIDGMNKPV

Kb (Histamine H3 receptor [1]) [nM]	Ki (Histamine H3 receptor [2]) [nM]	SMILES	other results
3.16	5.7	c1cn(-c2ccc([C@@H]3CN4CCC[C@@H]4c4cc(OCCCN5CCOCC5)ccc43)cc2)cn1	
3.16	3.7	c1ncc([C@@H]2CN3CCC[C@@H]3c3cc(OCCCN4CCOCC4)ccc32)s1	
3.16	2.7	c1ccc([C@@H]2CN3CCC[C@@H]3c3cc(OCCCN4CCOCC4)ccc32)nc1	
3.16	0.8	c1cncc([C@@H]2CN3CCC[C@@H]3c3cc(OCCCN4CCCCC4)ccc32)c1	Kp [3]: 0.75; Ki [4]: 107 nM; Ki [5]: 460 nM; Ki [6]: 74 nM; Activity (Rattus norvegicus [7]): 300%; Activity (Rattus norvegicus [8]): 500%; concentration at 0.25 h [9]: 1430 nM; concentration at 2 h [10]: 920 nM; MRT [11]: 6.57 h; MRT [12]: 31.3 h
3.16	0.8	c1ccc([C@@H]2CN3CCC[C@@H]3c3cc(OCCCN4CCCCC4)ccc32)nc1	
3.16	3.3	c1csc([C@@H]2CN3CCC[C@@H]3c3cc(OCCCN4CCOCC4)ccc32)n1	
3.16	5.3	c1cnn(-c2ccc([C@@H]3CN4CCC[C@@H]4c4cc(OCCCN5CCOCC5)ccc43)cc2)c1	
3.16	1	c1cc([C@@H]2CN3CCC[C@@H]3c3cc(OCCCN4CCCCC4)ccc32)ccn1	
3.16	4	c1cc([C@@H]2CN3CCC[C@@H]3c3cc(OCCCN4CCOCC4)ccc32)[nH]n1	
3.16	4	c1cnc([C@@H]2CN3CCC[C@@H]3c3cc(OCCCN4CCOCC4)ccc32)cn1	
3.16	3	c1cc([C@@H]2CN3CCC[C@@H]3c3cc(OCCCN4CCOCC4)ccc32)cs1	
3.16	1.6	c1cncc([C@@H]2CN3CCC[C@@H]3c3cc(OCCCN4CCOCC4)ccc32)c1	

SMILES	Kb (Histamine H3 receptor [1]) [nM]	Ki (Histamine H3 receptor [2]) [nM]	other results
c1ccn2c([C@@H]3CN4CCC[C@@H]4c4cc(OCCCN5CCOCC5)ccc43)cnc2c1	3.16	2	
